According to ChEMBL document CHEMBL1158084, “Cytotoxic diterpenoids from the soft coral Sarcophyton crassocaule” (J Nat Prod, 2006):
Converted amounts (≈) assume the structure as drawn.

tested on: KB; assay: Cytotoxicity against human KB cells; type: functional, cell-based

`COC(=O)/C1=C\[C@@H]2O[C@@]2(C(C)C)CC/C(C(=O)OC)=C/CC[C@]2(C)O[C@H]2CC1` and `COC(=O)/C1=C\C=C(\C(C)C)CCC2=CCC[C@](C)(OC2=O)[C@@H](OC(C)=O)CC1` [EMBLIDE] are the same in IC50: 5 µg/mL (≈ 12.7 µM) for the first, 5 µg/mL (≈ 12.4 µM) for the second.

First: COC(=O)/C1=C/C=C(/C(C)C)CCC2=CCC[C@](C)(OC2=O)[C@H](OC(C)=O)CC1 [SARCRASSIN D]
Second: COC(=O)/C1=C/C=C(/C(C)C)CCC2=CCC[C@](C)(OC2=O)C(=O)CC1 [SARCRASSIN E]
The IC50 of the first is 3.2-fold lower: 4 µg/mL (≈ 9.89 µM) for the first, 13 µg/mL (≈ 36.1 µM) for the second.
